No end group written: not given here.
Legend:
ischemic injury = details: after ischemic injury; cited from earlier work
[1] = system: cells of the central nervous system (CNS); details: cell cultures; cited from earlier work
[2] = system: laser-induced retinal damage; assay: Argon laser retinal lesions in rats, histopathologic and morphometric evaluation; format: in vivo, rat
Procedure: Pigmented DA rats (strain DA/Ola/Hsd, Harlan OCAL Ltd., Blackthorn Bicester Oxon, England; raised in Tel-Aviv University animal house), 90 days old, were used for the experiments. The posterior segment of the eye of this strain has a uniform pigmentation, making it particularly useful for retinal laser injury production. The animals were fed ad libitum with a normal laboratory diet and maintained on a 12-h light/dark cycle. They were anesthetized by intraperitoneal injections of ketamine (40 mg/kg) and xylasine (8 mg/kg) before each experimental procedure.
After dilatation of the pupil with sterile drops of Topicamid 0.5% (Midramid, Fisher), a contact lens, specially crafted to fit a rat eye for retinal laser irradiation, was attached to the cornea with 2.5% hydroxypropyl methylcellulose. Six laser retinal lesions were produced in each eye of each of the anesthetized (ketamine (40 mg/kg) and xylasine (8 mg/kg)) rats by argon laser (Novus 2000 Coherent, CA) two disc diameters away from the optic disc. The laser beam characteristics were 514 & […], 200 μm, 0.1 W, 0.05 second. These laser settings were found in previous studies to result in lesions of a uniform size and configuration, involving mainly the outer retinal layers.
The animals of the experimental groups I and III underwent systemic intravenous injection of NAP or saline immediately after the laser photocoagulation, NAP was injected in the amount of 60 μg per animal (about 280-300 μg/kg) in a volume of 0.5 ml of saline. The animals of the control group got an injection of 0.5 ml of saline. The injections were performed in the femoral vein of the right leg of each animal after the vessel was uncovered and isolated in situ. The wound was sewed up after the injection with surgical silk.
The animals of the experimental groups II and IV underwent NAP or saline injection immediately after the laser photocoagulation. Each eye of each anesthetized rat was punctured with a 30-gauge needle of a Hamilton syringe at the temporal posterior part of the retina. Then, 5 μl of NAP saline solution at a concentration of 2.5 pg/μl was injected into the vitreous body of the experimental group. The same amount of saline (5 μl) was injected intravitreally in the animals of the control groups. All of the procedures were controlled visually via a surgical microscope.
The effect of treatment in all groups was evaluated at three time points: 3, 20, and 60 days after the primary injury (n=6 at each time point in each group). The animals were euthanized by a lethal dose of pentobarbitone and their eyes enucleated and fixed in 2% glutaraldehyde. Using a surgical microscope, the posterior segment of the fixed eye was dissected into tissue samples, each incorporating one retinal laser lesion. The samples were embedded in epoxy resin and the blocks sectioned serially (1 μm) with an ultramicrotome and stained with toluidine blue.
The microscopic images were digitalized by SmartCapture VP software (Digital Scientific, USA) and enhanced by IPLab software (Scanalytics, USA). Then the images were segmented for photoreceptor clarification by IPLab software (Scanalytics, USA) and the photoreceptors were counted.
Morphometric measurements were performed on each lesion in order to evaluate the severity of the argon laser injury. The borders of the lesion area were established at the most distant point from the middle of the lesion where the cytoarchitecture changes in the pigment epithelium, outer nuclear, inner nuclear, or ganglion cell layers of the retina could be distinguished. The measurements performed were: 1) Diameter of the whole lesion, 2) Cell count in the outer nuclear layer of the whole lesion area, and 3) Cell count in the outer nuclear layer at the 100 μm center of the lesion
In order to evaluate the extent of photoreceptor cell loss, results were compared to the cell density in the intact regions of the outer nuclear retinal layer located 100 μm peripherally from the edges of the lesion. […]

fetal alcohol syndrome = details: in vivo; cited from earlier work
[3] = system: Alzheimer's disease pathology; details: in vivo; cited from earlier work
closed head injury = details: mice; cited from earlier work
anxiety = details: long term nasal application; cited from earlier work
[4] = rabbit, in vivo
Procedure: Three albino rabbits (each three months old) were used. One animal at a time was anesthetized using Ketamin (40 mg/kg) and Xylazine (8 mg/kg). After the animals were fully anesthetized, a drop of radioactive drug—^14C-NAPVSIPQ (SEQ ID NO:24) (50 microliter; 1.5×10^6 dpm; 37 mCi/mmol; 1 microCi=2×10^6 dpm) was applied once by a micropipette to each eye, i.e., eye drops. The eye drops were prepared to include 2.7 microliter of the ^14C-NAP stock in 400 microliter saline (0.9% NaCl). 10 microliters of this solution were counted to yield 3×10^5 dpm. After application of the drug, eye lids were held gently closed for 10 seconds.
The aqueous humor is the liquid that is found in-between the cornea and lens. Ten microliter samples of aqueous humor were taken from the rabbits' eyes using a tuberculin syringe with a 30 gauge needle.
The vitreous humor is found between the retina and the lens. Vitreous samples were obtained through the pars plana with a 25 gauge needle attached to a Tuberculin syringe. Ten microliter samples of vitreous humor were taken from each eye at designated times as outlined in the attached graphs up to 130 minutes after the initial eye drop application Systemic samples were taken from blood. For results see, e.g., FIGS. 4-6.
The animals were anesthetized for the duration of the […] to avoid animal suffering. A boost of anesthetics was injected about ninety minutes after the initiation of the experiment.

normal aging rats = details: intranasal administration; cited from earlier work
[5] = system: neurons of the central nervous system; details: in-vitro assays and in vivo disease models; cited from earlier work

Compound: CC[C@H](C)[C@H](NC(=O)[C@H](CO)NC(=O)[C@@H](NC(=O)[C@@H]1CCCN1C(=O)[C@H](C)NC(=O)[C@@H](N)CC(N)=O)C(C)C)C(=O)N1CCC[C@H]1C(=O)N[C@@H](CCC(N)=O)C(=O)O [NAP, Asn-Ala-Pro-Val-Ser-Ile-Pro-Gln]
- infarct volume (ischemic injury): reduced
- motor function deficits (ischemic injury): reduced
- concentration showing neuroprotective activity [1]: femtomolar concentrations
- neuroprotective effect against laser-induced retinal damage ([2]; intravitreal NAP 5 μl of 2.5 pg/μl, 3 days after the laser session): significant neuroprotective effect
- neuroprotective effect against laser-induced retinal damage ([2]; intravitreal NAP, 20 and 60 days after the laser session): not after 20 and 60 days
- mean lesion diameter ([2]; intravitreal NAP, 3 days after the laser injury): reduced
- mean lesion diameter ([2]; intravitreal NAP, after 20 days, vs control groups): greater than in control groups
- photoreceptor loss (morphological evaluation of the lesions) ([2]; systemic intravenous NAP 60 μg per animal immediately after laser, 3 and 20 days after injury, vs saline control): attenuation
- lesion diameter (morphological evaluation of the lesions) ([2]; systemic intravenous NAP 60 μg per animal, 3 and 20 days after injury, vs saline control): attenuation
- number of cells lost, whole and central areas of lesion ([2]; systemic intravenous NAP, 3, 20 and 60 days after injury): reduced
- diameter of the lesion ([2]; systemic intravenous NAP, 20 and 60 days after the injury): significant ameliorative effects (P<0.01)
- neuroprotective effect (photoreceptor loss and lesion diameter) ([2]; systemic intravenous NAP, 60 days after the laser session): also manifested, although to a lesser extent
- significance of reduction in number of cells lost ([2]; systemic intravenous NAP, sixty days after photocoagulation only): statistically significant (P<0.01)
- fetal demise (fetal alcohol syndrome): reducing
- growth restrictions (fetal alcohol syndrome): reducing
- effect in Alzheimer's disease pathology models [3]: protective
- damage caused by closed head injury (closed head injury): reducing damage
- anxiety (anxiety): decreased anxiety
- maximal incorporation into vitreous samples [4]: 60 dpm/10 microliters
- peak of radioactive incorporation into the aqueous humor [4]: 150 dpm/10 microliter
- radioactivity at the aqueous humor at the 10 minute point [4]: ~60 dpm/10 microliters
- systemic exposure (blood radioactivity) [4]: 1-12 dpm
- time of maximal incorporation into vitreous samples [4]: 10 min
- time of peak radioactive incorporation into the aqueous humor [4]: 50 min
- time the aqueous humor peak was maintained [4]: 70 min
- performance in the Morris water maze (normal aging rats): improved performance

Compound: SALLRSIPA
- survival of neurons in response to various insults [5]: keep neurons of the central nervous system alive

Source: patent publication US8067369B2, “Protection of the retina against laser injury by NAP and related peptides” (Ramot at Tel-Aviv University, priority 2006, dated 2011)
